PMC6934184, “Selective DNA-PKcs inhibition extends the therapeutic index of localized radiotherapy and chemotherapy” (The Journal of Clinical Investigation, 2019)

Target: T1, MYLK2 (skMLCK) (Homo sapiens, UniProt Q9H1R3)
T1 construct: purchased Thermo Fisher Scientific (Life Technologies) SelectScreen
Assay: SelectScreen Z'LYTE
Assay type: biochemical
Procedure, shortened: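 SelectScreen broad panel; activity (Z'LYTE, Adapta) plus binding formats. ATP: Km app for CSF1R Z'LYTE; 10 for CAMK1 Adapta. Readout = % per kinase.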

T1 sequence (Q9H1R3 whole entry): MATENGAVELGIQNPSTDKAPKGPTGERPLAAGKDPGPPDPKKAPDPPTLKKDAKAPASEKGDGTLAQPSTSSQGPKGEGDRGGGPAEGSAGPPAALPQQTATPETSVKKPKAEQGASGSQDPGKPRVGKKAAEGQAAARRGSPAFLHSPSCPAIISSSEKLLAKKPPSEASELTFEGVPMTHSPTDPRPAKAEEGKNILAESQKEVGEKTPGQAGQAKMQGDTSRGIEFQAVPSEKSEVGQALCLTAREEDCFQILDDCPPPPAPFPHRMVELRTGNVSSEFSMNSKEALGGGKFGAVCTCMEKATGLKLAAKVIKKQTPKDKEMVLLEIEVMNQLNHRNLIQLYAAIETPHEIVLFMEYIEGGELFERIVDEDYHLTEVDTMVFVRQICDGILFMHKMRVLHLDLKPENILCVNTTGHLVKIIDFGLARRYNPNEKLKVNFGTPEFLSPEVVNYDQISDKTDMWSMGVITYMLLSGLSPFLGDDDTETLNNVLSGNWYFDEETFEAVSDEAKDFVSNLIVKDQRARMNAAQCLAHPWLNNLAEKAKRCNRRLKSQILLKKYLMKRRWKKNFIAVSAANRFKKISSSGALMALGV

Q: CN(C(=O)CN1CCOCC1)c1ccc2sc3c(-c4cccc5c(=O)cc(N6CC7CCC(C6)O7)oc45)cccc3c2c1 [NU5455] was tested. Which inhibition at 1 µM did it give?
A: -2.2%
